Assay results: patent US9980919B2, “Preparation of pH-responsive nanoparticles and promoted delivery of anticancer drugs into deep tumor tissues and application thereof” (NATIONAL TSING HUA UNIVERSITY, priority 2015, dated 2018)

What was measured:
Type in all cases: in vivo, C57BL/6J mice
[1] = system: TRAMP-C1 tumor; assay: Tumor local temperature under 808 nm NIR laser irradiation (infrared thermal imaging camera); settings: 6 hours post-injection; 808 nm laser 1.0 W/cm^2, 5 min; ICG 1.6 mg/kg I.V.
Description: (§1) Please refer to FIG. 15. FIG. 15 is a time—temperature figure of the pH-responsive ICG/DOX-loaded NHTPNs of an embodiment in the instant disclosure. […] 6 hours post-injection, the mice (5 in each group) were irradiated at the tumor sites with 808 nm laser (1.0 W/cm^2) for 5 min. The tumor volumes of various groups were measured daily and normalized against the original volumes to assess the antitumor efficacy. The tumor local temperature was monitored by infrared thermal imaging camera.

[2] = system: TRAMP-C1 tumor; assay: ICG fluorescence accumulated in organs and tumor of TRAMP-C1 tumor-bearing mice (IVIS); settings: 48 hours after tail vein injection; ICG 1.6 mg/kg
Description: (§2) Please refer to FIGS. 12 and 14. […] To establish tumor model, 2×10^7 TRAMP-C1 cells were subcutaneously injected into the right thigh of mice. Two weeks post-inoculation, the low permeability tumor model was established. Tumor volume (V) was calculated as follows: V=L×W^2/2, where W is the tumor measurement at the widest point and L the tumor dimension at the longest point. […] The fluorescence signals of ICG (Ex. 745 nm and Em. 810 nm) at 2, 4, 6, 24 and 48 h post-injection were collected on the IVIS. The treated mice were then sacrificed and the major organs harvested for individual organ imaging by IVIS. After tail vein injection for 48 hours and observation in vivo experiments, the mouse was sacrificed and its major organs and tumors taken for detecting ICG fluorescent performance of each organ using a non-invasive in vivo imaging system (IVIS).

[3] = system: TRAMP-C1 tumor; assay: Tumor growth inhibition (relative tumor volume over 15 days) in TRAMP-C1 tumor-bearing mice; settings: with NIR laser (+laser)
Description: as §2, §1

**Q.** `CC1(C)C(/C=C/C=C/C=C/C=C2\N(CCCCS(=O)(=O)O)c3ccc4ccccc4c3C2(C)C)=[N+](CCCCS(=O)(=O)[O-])c2ccc3ccccc3c21` [Free ICG, indocyanine green] was tested. Which “highest temperature in the tumor” value [1] did it give?
**A.** 41.4 °C

**Q.** And the “ICG fluorescent expression in the tumor” value [2]?
**A.** no fluorescent expression in the tumor

**Q.** What about the “organ in which the ICG fluorescence is expressed” value [2] of the same compound?
**A.** mostly expressed in the liver

**Q.** What about the “tumor growth inhibition effect” value [3] of the same compound?
**A.** no significant tumor growth inhibition effect
